Results from US10993943B2, “Crystalline forms of selinexor and process for their preparation” (WATSON LABORATORIES INC., priority 2017, dated 2021).

Experiment: Solubility in aqueous medium (buffers at pH 1.2, 4.5, 6.8)
Type: physicochemical
Details: Form T8 in comparison with Form A

Row | Structure (SMILES) | solubility in aqueous medium (pH 4.5 (acetate buffer)) | solubility in aqueous medium (pH 6.8 (phosphate buffer)) | solubility in aqueous medium (pH=1.2 (HCl buffer))
1 | O=C(/C=C\n1cnc(-c2cc(C(F)(F)F)cc(C(F)(F)F)c2)n1)NNc1cnccn1 [Form T8, (Z)-3-(3-(3,5-bis(trifluoromethyl)phenyl)-1H-1,2,4-triazol-1-yl)-N′-(pyrazin-2-yl) acrylohydrazide] | enhanced solubility | enhanced solubility | enhanced solubility
2 | O=C(/C=C\n1cnc(-c2cc(C(F)(F)F)cc(C(F)(F)F)c2)n1)NNc1cnccn1 [Form A, (Z)-3-(3-(3,5-bis(trifluoromethyl)phenyl)-1H-1,2,4-triazol-1-yl)-N′-(pyrazin-2-yl) acrylohydrazide] | practically insoluble | practically insoluble | practically insoluble
